Measured values taken from patent publication US10745755B2, “Sestrin activators for preventing and/or attenuating skin ageing and/or hydrating the skin and/or for regulating skin pigmentation” (CHANEL PARFUMS BEAUTE, priority 2014, dated 2020).

Columns and labels:
Format in all cases: cell-based
SESN3 = SESN3 immunofluorescence in human skin equivalents; conditions: versus untreated control, extract last 7 days, retinol last 4 days
Procedure: (§1) Keratinocytes and fibroblasts from juvenile donors were purchased from Promocell. The dermal equivalent consists of a collagen solution containing rat tail collagen type I (BD Biosciences), 10× DMEM medium (Gibco/Invitrogen), sodium bicarbonate (Gibco/Invitrogen) and fibroblasts added into 6 well-culture inserts (BD) and placed in deep 6-well culture plates (BD). After 2 hours, of polymerisation at 37° C., dermal equivalents were equilibrated in supplemented Keratinocyte Growth Medium (KGM2 basal medium+SupplementMix, Promocell) and placed at 37° C., 5% CO2. After 24 hours, suspension of keratinocytes was added over the gel and submerged for 3 days in supplemented Keratinocyte Growth Medium. The inserts were placed at the air liquid interface in Serum-free Keratinocyte Defined Medium (SKDM: SKDM is a high Ca^2+ medium consisting of KGM2 basal medium, transferrin (Sigma), BSA (Sigma) and L-ascorbic acid (Sigma)) for 10 days. 24 hours before culture arrest, skin equivalents were irradiated, in duplicates, with 100 mJ/cm^2 UVB.
(§2) Human skin equivalents were fixed in 10% formalin before embedding in paraffin and cutting into 5 μm-thick sections. Sections were deparaffinized in xylene, rehydrated in ethanol baths, rinsed in deionised water. Antigen retrieval in 10 mM citrate buffer pH6 at 90° C. for 20 minutes was performed before blocking reaction in goat serum 3% for 1 hour. […]

Loricrin = Loricrin immunostaining in human skin equivalents; conditions: versus untreated control, extract last 7 days, retinol last 4 days
Procedure: as §1, §2

Cytokeratin 10 = Cytokeratin 10 immunostaining in human skin equivalents; conditions: versus untreated control, retinol last 4 days
Procedure: as §1, §2

CC1=C(/C=C/C(C)=C/C=C/C(C)=C/CO)C(C)(C)CCC1 [retinol]
decreased: SESN3 staining intensity (SESN3) | Loricrin immunostaining (Loricrin) | Cytokeratin 10 immunostaining (Cytokeratin 10)
